Assays:
thrombin = target: T1, thrombin (Homo sapiens, UniProt P00734); experiment: Inhibition of thrombin in the solid-phase thrombin assay; type: biochemical; settings: 80 min assay
T1 construct: additional factors necessary for cleavage of prothrombin to thrombin
Method: (§1) In the first assay, microtiter plates were coated with 150 μl per well of 50 μg/ml of fibrinogen in 10 mM Tris-acetate buffered saline, pH 7.6 (TABS) containing 10 mM EDTA overnight at 4° C. The solution was removed from the plate, and 100 μl of a 10 μg/ml solution of peroxidase-fibrinogen in 3.8 mg/ml bovine serum albumin (BSA) in TABS containing 10 mM calcium chloride was added to the well. 50 μl of thrombin diluted from 0.1 to 0.00078 NIH units/ml (30-0.25 ng/ml) was added to each well for various times from 0-160 min, after which the solution was washed from the plate. Peroxidase assay was performed using ortho-phenylenediamine as the indicator dye, with 11 min of incubation.
In the next assay, benzamidine and D-phenylalanyl-L-prolyl-L-arginine chloromethyl ketone (PPACK) were added to thrombin at the start of the assay. […] The percent inhibition can be calculated from the increased thrombin concentration required to obtain equivalent activity, as
% inhibition=100 * (1-To/Ti)
where To is the thrombin concentration yielding an O.D.=1 in the absence of inhibitor, and Ti is the thrombin concentration yielding an O.D.=1 in the presence of a given inhibitor concentration.

fibrinogen = experiment: Thrombin assay: peroxidase-fibrinogen bound to fibrinogen-coated microtiter plate; type: biochemical, human; settings: for [Thrombin] for O.D. = 1: unit not printed here (preceding table: NIH units/ml)
Method: This was prepared by the method of Nakane and Kawaoi (J. Histochem. Cytochem (1974) 22:1084) using 40 mg of horseradish peroxidase and 300 mg of human fibrinogen. The molar ratio of peroxidase to fibrinogen in the final product was 0.39. This was diluted with unlabeled fibrinogen to a concentration of 0.72 mg/ml of fibrinogen with a molar ratio of 0.12 moles of peroxidase per mole of fibrinogen, stored in 50% glycerol at -20° C.
as §1, with “incubation. Optical density was measured at 490 nm using a microtiter plate reader, with the following results:” for “incubation.”
Not only the endpoint (O.D.>2), but also the partial reaction ([…])can be used as a measure of thrombin activity. The penultimate value prior to the endpoint, or an approximate extrapolation to the concentration of thrombin yielding an O.D. value of 1 can be used to standardize this assay. For the above experiment, this value is reached at thrombin concentrations of: […]

Compound: N=C(N)c1ccccc1 [Benzamidine, benzamidine]
- % Inhibition (thrombin; [Benzamidine] 0.5 mM): 8%
- % Inhibition (thrombin; [Benzamidine] 1 mM): 41%
- % Inhibition (thrombin; [Benzamidine] 2 mM): 55%
- % Inhibition (thrombin; [Benzamidine] 5 mM): 75%
- % Inhibition (thrombin; [Benzamidine] 10 mM): 84%
- % Inhibition (thrombin; [Benzamidine] 20 mM): 97%

Compound: Thrombin
- [Thrombin] for O.D. = 1 (fibrinogen; incubation time 10 min): > 0.03
- [Thrombin] for O.D. = 1 (fibrinogen; incubation time 20 min): 0.02
- [Thrombin] for O.D. = 1 (fibrinogen; incubation time 40 min): 0.005
- [Thrombin] for O.D. = 1 (fibrinogen; incubation time 80 min): 0.002
- [Thrombin] for O.D. = 1 (fibrinogen; incubation time 160 min): 0.0008
- Optical density at 490 nm (fibrinogen; thrombin .00026 NIH units/ml, incubation 0 min): 0.20
- Optical density at 490 nm (fibrinogen; thrombin .00026 NIH units/ml, incubation 10 min): 0.24
- Optical density at 490 nm (fibrinogen; thrombin .00026 NIH units/ml, incubation 20 min): 0.19
- Optical density at 490 nm (fibrinogen; thrombin .00026 NIH units/ml, incubation 40 min): 0.25
- Optical density at 490 nm (fibrinogen; thrombin .00026 NIH units/ml, incubation 80 min): 0.32
- Optical density at 490 nm (fibrinogen; thrombin .00026 NIH units/ml, incubation 160 min): 0.24
- Optical density at 490 nm (fibrinogen; thrombin .0005 NIH units/ml, incubation 0 min): 0.21
- Optical density at 490 nm (fibrinogen; thrombin .0005 NIH units/ml, incubation 10 min): 0.21
- Optical density at 490 nm (fibrinogen; thrombin .0005 NIH units/ml, incubation 20 min): 0.16
- Optical density at 490 nm (fibrinogen; thrombin .0005 NIH units/ml, incubation 40 min): 0.14
- Optical density at 490 nm (fibrinogen; thrombin .0005 NIH units/ml, incubation 80 min): 0.18
- Optical density at 490 nm (fibrinogen; thrombin .0005 NIH units/ml, incubation 160 min): 0.60
- Optical density at 490 nm (fibrinogen; thrombin .0010 NIH units/ml, incubation 0 min): 0.22
- Optical density at 490 nm (fibrinogen; thrombin .0010 NIH units/ml, incubation 10 min): 0.15
- Optical density at 490 nm (fibrinogen; thrombin .0010 NIH units/ml, incubation 20 min): 0.18
- Optical density at 490 nm (fibrinogen; thrombin .0010 NIH units/ml, incubation 40 min): 0.23
- Optical density at 490 nm (fibrinogen; thrombin .0010 NIH units/ml, incubation 80 min): 0.37
- Optical density at 490 nm (fibrinogen; thrombin .0010 NIH units/ml, incubation 160 min): 1.55
- Optical density at 490 nm (fibrinogen; thrombin .0021 NIH units/ml, incubation 0 min): 0.25
- Optical density at 490 nm (fibrinogen; thrombin .0021 NIH units/ml, incubation 10 min): 0.18
- Optical density at 490 nm (fibrinogen; thrombin .0021 NIH units/ml, incubation 20 min): 0.18
- Optical density at 490 nm (fibrinogen; thrombin .0021 NIH units/ml, incubation 40 min): 0.18
- Optical density at 490 nm (fibrinogen; thrombin .0021 NIH units/ml, incubation 80 min): 1.02
- Optical density at 490 nm (fibrinogen; thrombin .0021 NIH units/ml, incubation 160 min): > 2
- Optical density at 490 nm (fibrinogen; thrombin .0042 NIH units/ml, incubation 0 min): 0.23
- Optical density at 490 nm (fibrinogen; thrombin .0042 NIH units/ml, incubation 10 min): 0.22
- Optical density at 490 nm (fibrinogen; thrombin .0042 NIH units/ml, incubation 20 min): 0.26
- Optical density at 490 nm (fibrinogen; thrombin .0042 NIH units/ml, incubation 40 min): 0.87
- Optical density at 490 nm (fibrinogen; thrombin .0042 NIH units/ml, incubation 80 min): > 2
- Optical density at 490 nm (fibrinogen; thrombin .0042 NIH units/ml, incubation 160 min): > 2
- Optical density at 490 nm (fibrinogen; thrombin .0083 NIH units/ml, incubation 0 min): 0.30
- Optical density at 490 nm (fibrinogen; thrombin .0083 NIH units/ml, incubation 10 min): 0.42
- Optical density at 490 nm (fibrinogen; thrombin .0083 NIH units/ml, incubation 20 min): 0.40
- Optical density at 490 nm (fibrinogen; thrombin .0083 NIH units/ml, incubation 40 min): 1.67
- Optical density at 490 nm (fibrinogen; thrombin .0083 NIH units/ml, incubation 80 min): > 2
- Optical density at 490 nm (fibrinogen; thrombin .0083 NIH units/ml, incubation 160 min): > 2
- Optical density at 490 nm (fibrinogen; thrombin .017 NIH units/ml, incubation 0 min): 0.31
- Optical density at 490 nm (fibrinogen; thrombin .017 NIH units/ml, incubation 10 min): 0.30
- Optical density at 490 nm (fibrinogen; thrombin .017 NIH units/ml, incubation 20 min): 0.91
- Optical density at 490 nm (fibrinogen; thrombin .017 NIH units/ml, incubation 40 min): > 2
- Optical density at 490 nm (fibrinogen; thrombin .017 NIH units/ml, incubation 80 min): > 2
- Optical density at 490 nm (fibrinogen; thrombin .017 NIH units/ml, incubation 160 min): > 2
- Optical density at 490 nm (fibrinogen; thrombin .033 NIH units/ml, incubation 0 min): 0.41
- Optical density at 490 nm (fibrinogen; thrombin .033 NIH units/ml, incubation 10 min): 0.52
- Optical density at 490 nm (fibrinogen; thrombin .033 NIH units/ml, incubation 20 min): 1.24
- Optical density at 490 nm (fibrinogen; thrombin .033 NIH units/ml, incubation 40 min): > 2
- Optical density at 490 nm (fibrinogen; thrombin .033 NIH units/ml, incubation 80 min): > 2
- Optical density at 490 nm (fibrinogen; thrombin .033 NIH units/ml, incubation 160 min): > 2

Compound: N=C(N)NCCC[C@H](NC(=O)[C@@H]1CCCN1C(=O)[C@H](N)Cc1ccccc1)C(=O)CCl [PPACK, D-phenylalanyl-L-prolyl-L-arginine chloromethyl ketone]
- % Inhibition (thrombin; [PPACK] .005 nM): 11%
- % Inhibition (thrombin; [PPACK] .01 nM): 19%
- % Inhibition (thrombin; [PPACK] .02 nM): 43%
- % Inhibition (thrombin; [PPACK] .05 nM): 62%
- % Inhibition (thrombin; [PPACK] .1 nM): 79%
- % Inhibition (thrombin; [PPACK] .2 nM): 83%
- % Inhibition (thrombin; [PPACK] .5 nM): 95%
